According to patent US11033496B2, “Nanoparticles for delivery of chemopreventive agents” (OHIO STATE INNOVATION FOUNDATION, priority 2017, dated 2021):
Where two headings read alike, the source gives them in different places.

Tested on: human OSCC cells (three oral SCC cell lines)
Assay type: cell-based
Details: for maximum uptake (fluorescence intensity): 6 h
Protocol: Mean±S.D., n=18, *=p<0.01, ‡=p,0.001, Mann Whitney U 2-tailed test.
The internalization of free-IDA was more rapid than IDA-NP after 1-hour at 1000 nM (free-IDA: 21.08±5.33 vs. IDA-NP: 12.87±4.32). However, the maximum uptake of IDA-NP was greater than free-IDA after 6 hours at 2500 nM (IDA-NP: 43.53±8.42 vs. free-IDA: 27.61±5.66) and 5000 nM (IDA-NP: 64.44±12.71 vs. free-IDA: 31.06±7.24). [Data collected from three oral SCC cell lines, mean±SD, n=18, *P≤0.01 †P≤0.002, ‡P≤0.001; IDA-NP samples compared to free-IDA samples [Mann-Whitney U two-tailed Test].

CC(=O)[C@]1(O)Cc2c(O)c3c(c(O)c2[C@@H](O[C@H]2C[C@H](N)[C@H](O)[C@H](C)O2)C1)C(=O)c1ccccc1C3=O [free-IDA, idarubicin]
internalization / cellular uptake (fluorescence intensity) (1 h, 1000 nM): 21.08±5.33
maximum uptake (fluorescence intensity) (2500 nM): 27.61±5.66
maximum uptake (fluorescence intensity) (5000 nM): 31.06±7.24
